From ChEMBL document CHEMBL4420063, “Pgam1 inhibitors and methods related thereto” (2014)
pIC50: −log10 of the molar value.

Assays:
[1] = tested on: KG-1a; assay: Inhibition of cell proliferation in human KG1a cells assessed as reduction in cell number by MTT assay; assay type: functional, cell-based
[2] = tested on: KG-1a; assay: Inhibition of cell proliferation in human KG1a cells assessed as reduction in cell number by trypan blue exclusion based assay; assay type: functional
[3] = tested on: PBMC; assay: Antiproliferative activity against PBMC from healthy human assessed as reduction in cell viability at 10 to 20 uM by MTT assay; assay type: cell-based
[4] = tested on: NCI-H1299; assay: Inhibition of cell proliferation in human NCI-H1299 cells assessed as reduction in cell number by MTT assay; assay type: functional, cell-based
[5] = Toxicity in athymic nude-Foxn1nu mouse assessed as effect on lung at 100 mg/kg/day, ip for 7 days by H and E staining based histo-pathological analysis; assay type: organism-based; details: in vivo, 168 h
[6] = Toxicity in athymic nude-Foxn1nu mouse assessed as effect on spleen at 100 mg/kg/day, ip for 7 days by H and E staining based histo-pathological analysis; assay type: organism-based; details: in vivo, 168 h
[7] = Antiproliferative activity against human PIG1 cells assessed as reduction in cell number up to 40 uM by trypan blue exclusion based assay
[8] = Toxicity in athymic nude-Foxn1nu mouse assessed as effect on body weight at 100 mg/kg/day, ip for 7 days; assay type: organism-based; details: in vivo, 168 h
[9] = tested on: HFF; assay: Antiproliferative activity against HFF cells assessed as reduction in cell number up to 40 uM by trypan blue exclusion based assay; details: human
[10] = tested on: HaCaT; assay: Antiproliferative activity against human HaCaT cells assessed as reduction in cell number up to 40 uM by trypan blue exclusion based assay
[11] = tested on: NHDF; assay: Antiproliferative activity against NHDF cells assessed as reduction in cell number up to 40 uM by trypan blue exclusion based assay; details: human
[12] = Toxicity in athymic nude-Foxn1nu mouse assessed as effect on liver at 100 mg/kg/day, ip for 7 days by H and E staining based histo-pathological analysis; assay type: organism-based; details: in vivo, 168 h
[13] = Toxicity in athymic nude-Foxn1nu mouse assessed as effect on complete blood counts at 100 mg/kg/day, ip for 7 days; assay type: organism-based; details: in vivo, 168 h
[14] = Toxicity in athymic nude-Foxn1nu mouse assessed as effect on kidney at 100 mg/kg/day, ip for 7 days by H and E staining based histo-pathological analysis; assay type: organism-based; details: in vivo, 168 h
[15] = Antiproliferative activity against CD34-positive blood stem/progenitor cells from healthy human assessed as reduction in cell viability at 20 uM by trypan blue exclusion based assay
[16] = Toxicity in athymic nude-Foxn1nu mouse assessed as effect on hematopoietic parameters at 100 mg/kg/day, ip for 7 days; assay type: organism-based; details: in vivo, 168 h
[17] = Inhibition of cell proliferation in human Tu212LN cells assessed as reduction in cell number by MTT assay; assay type: functional, cell-based
[18] = Toxicity in ip dosed athymic nude-Foxn1nu mouse dosed for 4 weeks assessed as well-tolerated dose level; assay type: organism-based; details: in vivo, 672 h

SMILES | pIC50 [1] | pIC50 [2] | Activity [3] | pIC50 [4] | Activity [5] | Activity [6] | Activity [7] | Activity [8] | Activity [9] | Activity [10] | Activity [11] | Activity [12] | Activity [13] | Activity [14] | Activity [15] | Activity [16] | pIC50 [17] | Activity [18]
O=C1c2ccccc2C(=O)c2c1ccc(O)c2O [ATHRAQUINONES A] | 4.22 | 4.23 |  |  |  |  |  |  |  |  |  |  |  |  |  |  |  | 
O=C1c2ccccc2C(=O)c2c1cc(S(=O)(=O)Nc1ccc(C(F)(F)F)cc1)c(O)c2O | 4.77 |  | Non-Toxic | 4.59 | Non-Toxic | Non-Toxic | Non-Toxic | Non-Toxic | Non-Toxic | Non-Toxic | Non-Toxic | Non-Toxic | Non-Toxic | Non-Toxic | Non-Toxic | Non-Toxic | 4.58 | 100 mg/kg/day
